Measured values taken from patent publication US9018208B2, “Heterocycles as potassium channel modulators” (Icagen Inc., priority 2007, dated 2015).
Read-outs that look alike come from different tables or passages of the source.

Tested on: SH-SY5Y M-currents (KCNQ2, KCNQ3 and KCNQ5)
Experiment: SH-SY5Y native cell line FLIPR assay (voltage-sensitive dye DiBAC)
Format: cell-based, mouse neuroblastoma, rat glioma hybrid cell line
Details: SH-SY5Y native cell line, read-out: SH-SY5Y EC50
Summary of the method: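 Response is peak DiBAC fluorescence change, normalised to the maximum from a positive control agent, sampled every 30 s over 25 min. Before compound addition, SH-SY5Y cells differentiated with PGE1 plus isomethylbutylxanthine were dye-loaded for 1 h in EBSS with […] DiBAC.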

| Molecule | EC50 (FLIPR assay, Table 2) [nM] | other results |
| --- | --- | --- |
| CC(C(=O)Nc1nc2cc(C(F)(F)F)ccn2c1-c1ccccc1)c1ccccc1 (centres unmarked) [Compound 110, 2-phenyl-N-(3-phenyl-7-(trifluoromethyl)imidazo[1,2-a]pyridin-2-yl)propanamide] | 500 to 3000 |  |
| O=C(CC1CCC1)Nc1nc2ccc(F)cn2c1-c1ccc(OC(F)(F)F)cc1 [Compound 194, 2-cyclobutyl-N-(6-fluoro-3-(4-(trifluoromethoxy)phenyl)imidazo[1,2-a]pyridin-2-yl)acetamide] | < 500 |  |
| CC(C)(C)CC(=O)Nc1nc2ccc(F)cn2c1-c1cccc(C(C)(C)C#N)c1 [Compound 176, N-(3-(3-(2-cyanopropan-2-yl)phenyl)-6-fluoroimidazo[1,2-a]pyridin-2-yl)-3,3-dimethylbutanamide] | 500 to 3000 |  |
| O=C(CCc1ccccc1)Nc1nc2ccc(F)cn2c1-c1ccc(F)cc1 [Compound 134, N-(6-fluoro-3-(4-fluorophenyl)imidazo[1,2-a]pyridin-2-yl)-3-phenylpropanamide] | 500 to 3000 |  |
| O=C(Nc1nc2ccc(F)cn2c1I)C(F)(F)F [Compound 11, 2,2,2-trifluoro-N-(6-fluoro-3-iodoimidazo[1,2-a]pyridin-2-yl)acetamide] |  | EC50 (FLIPR assay, Table 1): 3000 to 10000 nM |
| O=C(Cc1ccc(F)cc1)Nc1nc2cc(Cl)c(Cl)cn2c1-c1ccc(C(F)(F)F)cc1 [Compound 236, N-(6,7-dichloro-3-(4-(trifluoromethyl)phenyl)imidazo[1,2-a]pyridin-2-yl)-2-(4-fluorophenyl)acetamide] | < 500 |  |
| CC(CC(=O)Nc1nc2ccc(F)cn2c1-c1cc(F)cc(F)c1)C(F)(F)F (centres unmarked) [Compound 230, N-(3-(3,5-difluorophenyl)-6-fluoroimidazo[1,2-a]pyridin-2-yl)-4,4,4-trifluoro-3-methylbutanamide] | 500 to 3000 |  |
| Cc1ccc(-c2c(N(C(=O)CC(C)(C)C)C(=O)CC(C)(C)C)nc3ccc(F)cn23)nc1 [Compound 356, N-(3,3-dimethylbutanoyl)-N-(6-fluoro-3-(5-methylpyridin-2-yl)imidazo[1,2-a]pyridin-2-yl)-3,3-dimethylbutanamide] |  | EC50 (FLIPR assay (Table 3)): 3000 to 10000 nM |
| O=C(Cc1ccc(F)c(F)c1)Nc1nc2ccc(C(F)(F)F)cn2c1C1CC1 [Compound 77, N-(3-cyclopropyl-6-(trifluoromethyl)imidazo[1,2-a]pyridin-2-yl)-2-(3,4-difluorophenyl)acetamide] |  | EC50 (FLIPR assay, Table 1): < 500 nM |
| O=C(Cc1ccc(F)cc1)Nc1nc2ccc(F)cn2c1-c1ccc(F)c(F)c1 [Compound 210, N-(3-(3,4-difluorophenyl)-6-fluoroimidazo[1,2-a]pyridin-2-yl)-2-(4-fluorophenyl)acetamide] | < 500 |  |
| Cc1ccc(-c2c(NC(=O)CC(C)(C)C)nc3ccc(F)cn23)cc1 [Compound 273, N-(6-fluoro-3-p-tolylimidazo[1,2-a]pyridin-2-yl)-3,3-dimethylbutanamide] | 500 to 3000 |  |
| O=C(Cc1ccccc1)Nc1nc2ccc(F)cn2c1-c1ccc(OC(F)(F)F)cc1 [Compound 207, N-(6-fluoro-3-(4-(trifluoromethoxy)phenyl)imidazo[1,2-a]pyridin-2-yl)-2-phenylacetamide] | < 500 |  |
| O=C(Cc1ccc(Cl)cc1)Nc1nc2ccc(F)cn2c1-c1cccc(Cl)c1 [Compound 301, 2-(4-chlorophenyl)-N-(3-(3-chlorophenyl)-6-fluoroimidazo[1,2-a]pyridin-2-yl)acetamide] | < 500 |  |
| O=C(Cc1ccc(F)cc1)Nc1nc2ccc(F)cn2c1-c1cccc(OC(F)(F)F)c1 [Compound 183, N-(6-fluoro-3-(3-(trifluoromethoxy)phenyl)imidazo[1,2-a]pyridin-2-yl)-2-(4-fluorophenyl) acetamide] | < 500 |  |
| Cc1cccc2nc(NC(=O)CC(C)C(F)(F)F)c(-c3cccc(C(F)(F)F)c3)n12 (centres unmarked) [Compound 420, 4,4,4-trifluoro-3-methyl-N-(5-methyl-3-(3-(trifluoromethyl)phenyl)imidazo[1,2-a]pyridin-2-yl)butanamide] |  | EC50 (FLIPR assay, Table 4): 500 to 3000 nM |
| Cc1ccn2c(-c3ccc(F)cc3)c(NC(=O)CC(C)(C)C)nc2c1 [Compound 169, N-(3-(4-fluorophenyl)-7-methylimidazo[1,2-a]pyridin-2-yl)-3,3-dimethylbutanamide] | < 500 |  |
| CC(C)(C)CC(=O)Nc1nc2ccc(F)cn2c1-c1cccc(C(F)(F)F)c1 [Compound 163, N-(6-fluoro-3-(3-(trifluoromethyl)phenyl)imidazo[1,2-a]pyridin-2-yl)-3,3-dimethylbutanamide] | < 500 |  |
| CC(C)(C)CC(=O)Nc1nc2cc(Cl)c(Cl)cn2c1-c1ccc(C(F)(F)F)cc1 [Compound 233, N-(6,7-dichloro-3-(4-(trifluoromethyl)phenyl)imidazo[1,2-a]pyridin-2-yl)-3,3-dimethylbutanamide] | < 500 |  |
| CC(C)(C)OCCC(=O)Nc1nc2ccc(F)cn2c1-c1cccc(OC(F)(F)F)c1 [Compound 277, 3-tert-butoxy-N-(6-fluoro-3-(3-(trifluoromethoxy)phenyl)imidazo[1,2-a]pyridin-2-yl)propanamide] | < 500 |  |
| Cc1ccc(-c2c(NC(=O)CC(C)(C)C)nc3ccc(F)cn23)cc1F [Compound 201, N-(6-fluoro-3-(3-fluoro-4-methylphenyl)imidazo[1,2-a]pyridin-2-yl)-3,3-dimethylbutanamide] | < 500 |  |
| COc1ccc2nc(NC(=O)CC(C)(C)C)c(-c3nccs3)n2n1 [Compound 415, N-(6-methoxy-3-(thiazol-2-yl)imidazo[1,2-b]pyridazin-2-yl)-3,3-dimethylbutanamide] |  | EC50 (FLIPR assay (Table 3)): 3000 to 10000 nM |
| O=C(Nc1cn2c(C(F)(F)F)cccc2n1)C(F)(F)F [Compound 12, 2,2,2-trifluoro-N-(5-(trifluoromethyl)imidazo[1,2-a]pyridin-2-yl)acetamide] |  | EC50 (FLIPR assay, Table 1): 3000 to 10000 nM |
| CC(C)(C)Cc1c(NC(=O)CC(C)(C)C(F)(F)F)nc2ccc(C(F)(F)F)cn12 [Compound 440, 4,4,4-trifluoro-3,3-dimethyl-N-(3-neopentyl-6-(trifluoromethyl)imidazo[1,2-a]pyridin-2-yl)butanamide] |  | EC50 (FLIPR assay (Table 6)): < 500 nM |
| CC(C)(C)Cc1c(NC(=O)Cc2ccc(F)cc2)nc2ccc(C(F)(F)F)cn12 [Compound 21, 2-(4-fluorophenyl)-N-(3-neopentyl-6-(trifluoromethyl)imidazo[1,2-a]pyridin-2-yl)acetamide] |  | EC50 (FLIPR assay, Table 1): < 500 nM |
| O=C(Nc1nc2ccccn2c1-c1cc(C(F)(F)F)ccn1)C1CCC(F)(F)CC1 [Compound 411, 4,4-difluoro-N-(3-(4-(trifluoromethyl)pyridin-2-yl)imidazo[1,2-a]pyridin-2-yl)cyclohexanecarboxamide] |  | EC50 (FLIPR assay (Table 3)): < 500 nM |
| O=C(Cc1ccc(F)cc1)Nc1nc2cc(C(F)(F)F)ccn2c1-c1ccc(F)cc1 [Compound 111, 2-(4-fluorophenyl)-N-(3-(4-fluorophenyl)-7-(trifluoromethyl)imidazo[1,2-a]pyridin-2-yl)acetamide] | 500 to 3000 |  |
| CC(C)(C)CC(=O)Nc1nc2ccccn2c1CC(C)(C)C [Compound 88, 3,3-dimethyl-N-(3-neopentylimidazo[1,2-a]pyridin-2-yl)butanamide] |  | EC50 (FLIPR assay, Table 1): 500 to 3000 nM |
| N-(6-fluoro-3-(3-(trifluoromethyl)phenyl)imidazo yl)cycloheptanecarboxamide [Compound 294] | < 500 |  |
| O=C(CC1CCCC1)Nc1nc2ccc(F)cn2c1-c1ccc(F)cc1 [Compound 107, 2-cyclopentyl-N-(6-fluoro-3-(4-fluorophenyl)imidazo[1,2-a]pyridin-2-yl)acetamide] | < 500 |  |

Second part, led by results:

| EC50 (FLIPR assay, Table 2) [nM] | Molecule | other results |
| --- | --- | --- |
| 500 to 3000 | Cc1c(F)ccc(-c2c(NC(=O)CC(C)(C)C)nc3ccc(F)cn23)c1F [Compound 256, N-(3-(2,4-difluoro-3-methylphenyl)-6-fluoroimidazo[1,2-a]pyridin-2-yl)-3,3-dimethylbutanamide] |  |
| 500 to 3000 | CC(C)(C)C(O)C(=O)Nc1nc2ccc(F)cn2c1-c1ccc(C(F)(F)F)cc1 (centres unmarked) [Compound 181, N-(6-fluoro-3-(4-(trifluoromethyl)phenyl)imidazo[1,2-a]pyridin-2-yl)-2-hydroxy-3,3-dimethylbutanamide] |  |
| < 500 | O=C(CCC1CC1)Nc1nc2ccc(F)cn2c1-c1cccc(OC(F)(F)F)c1 [Compound 274, 3-cyclopropyl-N-(6-fluoro-3-(3-(trifluoromethoxy)phenyl)imidazo[1,2-a]pyridin-2-yl)propanamide] |  |
| < 500 | O=C(Cc1cccc(F)c1)Nc1nc2ccc(F)cn2c1-c1ccc(OC(F)(F)F)cc1 [Compound 240, N-(6-fluoro-3-(4-(trifluoromethoxy)phenyl)imidazo[1,2-a]pyridin-2-yl)-2-(3-fluorophenyl)acetamide] |  |
| 500 to 3000 | COc1ccn2c(-c3ccc(C(F)(F)F)cc3)c(NC(=O)CC(C)(C)C)nc2c1 [Compound 245, N-(7-methoxy-3-(4-(trifluoromethyl)phenyl)imidazo[1,2-a]pyridin-2-yl)-3,3-dimethylbutanamide] |  |
| 500 to 3000 | O=C(CC1CC1)Nc1nc2ccc(F)cn2c1-c1cccc(C(F)(F)F)c1 [Compound 269, 2-cyclopropyl-N-(6-fluoro-3-(3-(trifluoromethyl)phenyl)imidazo[1,2-a]pyridin-2-yl)acetamide] |  |
| 500 to 3000 | CC(CC(=O)Nc1nc2ccccn2c1-c1cccc(OC(F)(F)F)c1)C(F)(F)F (centres unmarked) [Compound 343, 4,4,4-trifluoro-3-methyl-N-(3-(3-(trifluoromethoxy)phenyl)imidazo[1,2-a]pyridin-2-yl)butanamide] |  |
| < 500 | O=C(Cc1cccc(Cl)c1)Nc1nc2ccc(F)cn2c1-c1cccc(Cl)c1 [Compound 300, 2-(3-chlorophenyl)-N-(3-(3-chlorophenyl)-6-fluoroimidazo[1,2-a]pyridin-2-yl)acetamide] |  |
| < 500 | CC(C)(C)CC(=O)Nc1nc2ccccn2c1-c1ccc(C(F)(F)F)cc1 [Compound 223, 3,3-dimethyl-N-(3-(4-(trifluoromethyl)phenyl)imidazo[1,2-a]pyridin-2-yl)butanamide] |  |
